According to article PMC11358443, “Polymodal K^+ channel modulation contributes to dual analgesic and anti-inflammatory actions of traditional botanical medicines” (Communications Biology, 2024):

Columns and labels:
human Kv1.3 = human Kv1.3 (Homo sapiens, UniProt P22001); experiment: TEVC electrophysiology, Xenopus oocytes expressing Kv1.3; type: cell-based; conditions: for effect of 160 mM [K+]O on Kv1.3 inhibition: versus 4 mM [K+]O
Experimental: (§1) We generated human potassium channel cRNA transcripts with the mMessage mMachine kit (Thermo Fisher Scientific, Waltham, MA, USA) according to manufacturer’s instructions, after vector linearization, from cDNA sub-cloned into expression vectors (pTLNx, pXOOM and pMAX). We injected Xenopus laevis oocytes (Xenoocyte, Dexter, MI, USA) with the channel cRNAs (0.5–10 ng) and incubated the oocytes at 16 °C for 1–4 days prior to electrophysiological recording.
(§2) We performed TEVC at 20–23 °C with an OC-725C amplifier (Warner Instruments, Hamden, CT, USA) and pClamp10 software. Chemicals for recording and oocyte storage solutions were from Sigma-Aldrich (St. Louis, MO). Bath solution contained (in mM): 96 NaCl, 4 KCl, 1 MgCl2, 1 CaCl2, 10 HEPES (pH 7.6). Pipettes were 1–2 MΩ resistance when filled with 3 M KCl. We recorded currents in response to voltage pulses between −120 mV or −80 mV and +40 mV at 10 mV intervals from a holding potential of −80 mV, to yield current–voltage relationships and examine activation kinetics. We recorded and analyzed data using Clampfit (Molecular Devices, Sunnyvale, CA, USA) and Graphpad Prism software (GraphPad, San Diego, CA, USA), stating values as mean ± SEM. We calculated the voltage dependence of activation (V0.5) by measuring tail currents at a voltage pulse of −30 mV (Kv7) or −50 mV (Kv1), then fitted the tail current/voltage relationship with a single Boltzmann function:1 g=(A1−A2)/{1+exp[V1/2−V/Vs]}y+A2 where g is the normalized tail conductance, A1 is the initial value at −∞, A2 is the final value at +∞, V1/2 is the half-maximal voltage of activation and Vs the slope factor. We fitted activation and deactivation kinetics with single exponential functions.
(§3) For wild-type and mutant Kv1.3 channels we calculated conductance–voltage curves from current–voltage relationships recorded in response to voltage pulses between −80 mV to +40 mV in 10 mV intervals from a holding potential of −80 mV. The conductance was calculated by subtracting the driving force (EK):2 Ek=xlnK^+i/K^+o

Kv1.3 Mutant 1 = Kv1.3 Mutant 1 (Homo sapiens, UniProt P22001, D423E/G427Q/P424R/S429P/T425E); experiment: TEVC electrophysiology, oocytes expressing Kv1.3 Mutant 1 (Kv1.2 turret loop residues); type: cell-based
Excerpt: (§4) To test whether the predicted different binding poses of tannic acid to Kv1.2 and Kv1.3 could explain the contrasting functional effects on these two channels, we made three mutant forms of Kv1.3, introducing Kv1.2 residues into the Kv1.3 turret loop (Mutant 1), pore helix (Mutant 2) and selectivity filter-S6 linker (Mutant 3) (Fig. 9A, B). Mutant 2 was nonfunctional (Fig. 9C); the single residue in this mutant was inaccessible to tannic acid as it was deep inside the pore and was not predicted therefore to interact with tannic acid (Fig. 8).
as §1, §2, §3

Kv1.3 Mutant 3 = Kv1.3 Mutant 3 (Homo sapiens, UniProt P22001, H451V/V453T); experiment: TEVC electrophysiology, oocytes expressing Kv1.3 Mutant 3 (Kv1.2 selectivity filter-S6 linker residues); type: cell-based
Excerpt: as §4, §1, §2, §3

[1] = biological target: native Kv1.3 current in activated human T-cells (Homo sapiens, UniProt P22001); experiment: Patch-clamp of native Kv1.3 current in activated human T-cells; type: cell-based; conditions: approximation, underestimate of potency (saturation incomplete); read-out: IC50 for human T-cell Kv1.3 current
Experimental: Human CD4+ T cells from frozen PBMCs ([sequence] Technologies) were isolated with EasySep negative isolation kit ([sequence] Technologies, cat. #17952) according to manufacturers’ protocols. After isolation cells were plated on anti-CD3 (BioLegend, clone OKT3, 2.5 μg/ml), anti-CD28 (BioLegend, clone CD28.2, 2.5 μg/ml)-coated 6-well plate dish at 1.5 × 10^6 cells/well in 3 ml RPMI medium (Gibco) supplemented with 10% FBS (Omega Scientific), 1% L-glutamine (Gibco), 1% non-essential amino acids (Gibco), 1% sodium pyruvate (Gibco), 1% penicillin–streptomycin–amphotericin B (Gibco) and 50 µM, β-mercaptoethanol (Sigma), 30 U/ml recombinant human IL-2 (BioLegend, cat. #589102). Cells were incubated during 48–144 h in 5% CO2 + 95% O2 atmosphere at 37 °C, harvested and plated on poly-lysine coated coverslips; 30–60 min later cells were used in the experiment.
We performed patch clamp experiments at 20–23 °C, acquiring data with an EPC9 patch clamp amplifier (HEKA), a 5 kHz sampling rate and digitally filtering at 1–2 kHz. […] The Kv1.3 currents were recorded in response to 600 ms step pulse from holding potential −80 mV to +40 mV acquired every 30 s. […] The recorded currents were analyzed with Patch Master (HEKA Electronics) and Origin Pro (Origin Lab).

Kv7.5 = Kv7.5 (Homo sapiens, UniProt Q9NR82); parameters: method as in PMID 35997997; conditions: 100 µM; at −80 mV; cited from earlier work
Chain of Kv7.5 (Q9NR82 whole entry): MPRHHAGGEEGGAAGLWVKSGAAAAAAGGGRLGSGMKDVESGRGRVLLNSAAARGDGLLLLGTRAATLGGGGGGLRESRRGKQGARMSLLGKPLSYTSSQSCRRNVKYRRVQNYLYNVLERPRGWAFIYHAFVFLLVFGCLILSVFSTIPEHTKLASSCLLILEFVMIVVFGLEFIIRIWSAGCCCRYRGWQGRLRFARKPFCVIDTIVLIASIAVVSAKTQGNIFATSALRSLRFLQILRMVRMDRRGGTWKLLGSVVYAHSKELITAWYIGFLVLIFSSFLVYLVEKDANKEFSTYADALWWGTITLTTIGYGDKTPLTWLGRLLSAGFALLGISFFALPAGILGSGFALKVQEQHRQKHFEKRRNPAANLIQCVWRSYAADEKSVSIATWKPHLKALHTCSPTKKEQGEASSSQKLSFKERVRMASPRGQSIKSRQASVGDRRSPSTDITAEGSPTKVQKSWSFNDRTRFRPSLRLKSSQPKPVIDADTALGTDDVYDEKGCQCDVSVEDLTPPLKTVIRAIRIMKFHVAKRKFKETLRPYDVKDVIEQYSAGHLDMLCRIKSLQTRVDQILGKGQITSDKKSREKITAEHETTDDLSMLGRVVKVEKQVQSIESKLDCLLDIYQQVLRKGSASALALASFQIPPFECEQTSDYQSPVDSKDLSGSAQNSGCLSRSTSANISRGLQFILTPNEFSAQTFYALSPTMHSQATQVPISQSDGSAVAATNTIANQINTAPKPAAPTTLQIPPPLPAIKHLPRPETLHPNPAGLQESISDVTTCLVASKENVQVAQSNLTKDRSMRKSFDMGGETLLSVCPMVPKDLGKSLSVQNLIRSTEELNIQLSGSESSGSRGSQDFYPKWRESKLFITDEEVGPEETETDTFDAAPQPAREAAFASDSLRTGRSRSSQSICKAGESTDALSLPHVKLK

Chain of human Kv1.3 (P22001 whole entry): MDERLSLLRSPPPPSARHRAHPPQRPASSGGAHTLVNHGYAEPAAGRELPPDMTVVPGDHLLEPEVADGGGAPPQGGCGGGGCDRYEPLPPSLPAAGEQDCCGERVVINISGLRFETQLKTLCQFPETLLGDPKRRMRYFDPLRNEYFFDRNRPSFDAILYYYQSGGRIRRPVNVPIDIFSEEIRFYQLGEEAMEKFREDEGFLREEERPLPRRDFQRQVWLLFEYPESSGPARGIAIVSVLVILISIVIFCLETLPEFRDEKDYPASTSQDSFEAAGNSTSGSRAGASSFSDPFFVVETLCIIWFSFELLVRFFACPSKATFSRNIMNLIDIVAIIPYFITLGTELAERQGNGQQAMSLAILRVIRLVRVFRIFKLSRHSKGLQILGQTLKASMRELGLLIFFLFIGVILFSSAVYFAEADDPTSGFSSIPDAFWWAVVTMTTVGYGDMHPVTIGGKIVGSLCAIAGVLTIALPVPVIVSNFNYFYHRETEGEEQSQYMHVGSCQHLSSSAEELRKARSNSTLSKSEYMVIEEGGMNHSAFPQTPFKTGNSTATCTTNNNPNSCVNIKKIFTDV
Chain of Kv1.3 Mutant 3 (P22001 whole entry H451V/V453T): as the sequence (P22001 whole entry) above, with H451V, V453T counted along it
Chain of Kv1.3 Mutant 1 (P22001 whole entry D423E/P424R/T425E/G427Q/S429P): as the sequence (P22001 whole entry) above, with D423E, P424R, T425E, G427Q, S429P counted along it
Chain of native Kv1.3 current in activated human T-cells (P22001 whole entry): as the sequence (P22001 whole entry) above

tannic acid
Current at 0 (mV) (human Kv1.3; 0.1 µM tannic acid, control 1.99 ± 0.28): 2.39 ± 0.41 | Slope (human Kv1.3; 0.1 µM tannic acid, control 4.86 ± 0.31): 4.70 ± 0.45 mV | V0.5 Normalized tail current (human Kv1.3; 0.1 µM tannic acid, control -27.75 ± 1.03): -27.80 ± 2.36 mV | Current at 0 (mV) (human Kv1.3; 1 µM tannic acid): 2.23 ± 0.35 | Slope (human Kv1.3; 1 µM tannic acid): 4.73 ± 0.52 mV | V0.5 Normalized tail current (human Kv1.3; 1 µM tannic acid): -28.17 ± 3.08 mV | Current at 0 (mV) (human Kv1.3; 3 µM tannic acid): 1.96 ± 0.31 | Slope (human Kv1.3; 3 µM tannic acid): 5.21 ± 0.43 mV | V0.5 Normalized tail current (human Kv1.3; 3 µM tannic acid): -28.73 ± 3.31 mV | Current at 0 (mV) (human Kv1.3; 10 µM tannic acid): 1.09 ± 0.25 | Slope (human Kv1.3; 10 µM tannic acid): 7.44 ± 0.95 mV | V0.5 Normalized tail current (human Kv1.3; 10 µM tannic acid): -25.49 ± 4.06 mV | Current at 0 (mV) (human Kv1.3; 30 µM tannic acid): 0.72 ± 0.27 | Slope (human Kv1.3; 30 µM tannic acid): 10.91 ± 2.27 mV | V0.5 Normalized tail current (human Kv1.3; 30 µM tannic acid): -19.06 ± 4.68 mV | time to steady-state block (human Kv1.3; 30 µM tannic acid, 2 s depolarizing pulses every 60 s (6 pulses)): 300 ms | time to steady-state block (human Kv1.3; 30 µM tannic acid, 200-ms depolarizing pulses every 60 s (13 pulses)): 700 ms | effect of 160 mM [K+]O on Kv1.3 inhibition (human Kv1.3; 30 µM tannic acid): abolished inhibition | Current at 0 (mV) (human Kv1.3; 100 µM tannic acid): 0.32 ± 0.08 | Slope (human Kv1.3; 100 µM tannic acid): 15.18 ± 2.02 mV | V0.5 Normalized tail current (human Kv1.3; 100 µM tannic acid): -9.91 ± 3.45 mV | effect of 160 mM [K+]O on Kv1.3 inhibition (human Kv1.3; 100 µM tannic acid): significantly reduced the efficacy | IC50 (human Kv1.3; prepulse current, read-out: IC50 for Kv1.3 inhibition in oocytes): 12 ± 1.3 µM | concentrations that depolarized the EM of oocytes expressing Kv1.3 (human Kv1.3; unclamped oocytes): above 10 µM | Slope (Kv1.3 Mutant 1; 0.1 µM tannic acid, control 3.97 ± 0.40): 5.16 ± 0.56 mV | Current at 0 (mV) (Kv1.3 Mutant 1; 0.1 µM tannic acid, control 4.66 ± 1.27): 5.24 ± 0.91 | V0.5 Normalized tail current (Kv1.3 Mutant 1; 0.1 µM tannic acid, control -14.75 ± 3.06): -20.05 ± 2.13 mV | Current at 0 (mV) (Kv1.3 Mutant 1; 1 µM tannic acid): 5.37 ± 0.63 | Slope (Kv1.3 Mutant 1; 1 µM tannic acid): 4.97 ± 0.53 mV | V0.5 Normalized tail current (Kv1.3 Mutant 1; 1 µM tannic acid): -24.05 ± 2.18 mV | Current at 0 (mV) (Kv1.3 Mutant 1; 3 µM tannic acid): 4.93 ± 0.57 | Slope (Kv1.3 Mutant 1; 3 µM tannic acid): 5.05 ± 0.28 mV | V0.5 Normalized tail current (Kv1.3 Mutant 1; 3 µM tannic acid): -27.01 ± 1.83 mV | Current at 0 (mV) (Kv1.3 Mutant 1; 10 µM tannic acid): 4.01 ± 0.41 | Slope (Kv1.3 Mutant 1; 10 µM tannic acid): 5.33 ± 0.20 mV | V0.5 Normalized tail current (Kv1.3 Mutant 1; 10 µM tannic acid): -27.63 ± 1.98 mV | Current at 0 (mV) (Kv1.3 Mutant 1; 30 µM tannic acid): 2.18 ± 0.24 | Slope (Kv1.3 Mutant 1; 30 µM tannic acid): 5.94 ± 0.30 mV | V0.5 Normalized tail current (Kv1.3 Mutant 1; 30 µM tannic acid): -24.82 ± 2.70 mV | Current at 0 (mV) (Kv1.3 Mutant 1; 100 µM tannic acid): 1.15 ± 0.14 | Slope (Kv1.3 Mutant 1; 100 µM tannic acid): 6.41 ± 0.42 mV | V0.5 Normalized tail current (Kv1.3 Mutant 1; 100 µM tannic acid): -19.79 ± 4.83 mV | reduction of tannic acid sensitivity versus wild-type Kv1.3 (Kv1.3 Mutant 1; inhibition dose response): threefold | Slope (Kv1.3 Mutant 3; 0.1 µM tannic acid, control 2.50 ± 0.70): 4.01 ± 0.35 mV | Current at 0 (mV) (Kv1.3 Mutant 3; 0.1 µM tannic acid, control 3.39 ± 0.48): 4.20 ± 0.53 | V0.5 Normalized tail current (Kv1.3 Mutant 3; 0.1 µM tannic acid, control -31.00 ± 0.53): -30.20 ± 0.78 mV | Current at 0 (mV) (Kv1.3 Mutant 3; 1 µM tannic acid): 4.44 ± 0.64 | Slope (Kv1.3 Mutant 3; 1 µM tannic acid): 3.67 ± 0.41 mV | V0.5 Normalized tail current (Kv1.3 Mutant 3; 1 µM tannic acid): -30.51 ± 0.97 mV | Current at 0 (mV) (Kv1.3 Mutant 3; 3 µM tannic acid): 4.25 ± 0.64 | Slope (Kv1.3 Mutant 3; 3 µM tannic acid): 4.85 ± 0.24 mV | V0.5 Normalized tail current (Kv1.3 Mutant 3; 3 µM tannic acid): -30.85 ± 1.34 mV | Current at 0 (mV) (Kv1.3 Mutant 3; 10 µM tannic acid): 2.28 ± 0.38 | Slope (Kv1.3 Mutant 3; 10 µM tannic acid): 6.40 ± 0.62 mV | V0.5 Normalized tail current (Kv1.3 Mutant 3; 10 µM tannic acid): -29.05 ± 1.94 mV | Current at 0 (mV) (Kv1.3 Mutant 3; 30 µM tannic acid): 0.88 ± 0.13 | Slope (Kv1.3 Mutant 3; 30 µM tannic acid): 14.11 ± 1.75 mV | V0.5 Normalized tail current (Kv1.3 Mutant 3; 30 µM tannic acid): -16.81 ± 5.40 mV | Current at 0 (mV) (Kv1.3 Mutant 3; 100 µM tannic acid): 0.50 ± 0.07 | change of tannic acid IC50 versus wild-type Kv1.3 (Kv1.3 Mutant 3; inhibition dose response): did not alter | IC50 [1]: 3.3 ± 0.2 µM | constitutive activation for Kv7.5 (Kv7.5): 50%
